Source: the NIST ThermoML archive (doi:10.1016/j.fluid.2006.12.016)
Numbers after ± are expanded uncertainties.

Conditions: 101.33 kPa, Liquid

CCCCn1cc[n+](C)c1.F[B-](F)(F)F [1-butyl-3-methylimidazolium tetrafluoroborate]
Conditions	mass density [kg/m3]	viscosity [mPa·s]
293.15 K	1205.89 ± 3	136.3 ± 18
294.15 K	1205.17 ± 3	–
295.15 K	1204.46 ± 3	–
296.15 K	1203.73 ± 3	–
297.15 K	1203 ± 3	–
298.15 K	1202.3 ± 3	103.8 ± 10
299.15 K	1201.57 ± 2.9	–
300.15 K	1200.85 ± 2.9	–
301.15 K	1200.13 ± 2.9	–
302.15 K	1199.43 ± 2.9	–
303.15 K	1198.71 ± 2.9	80.6 ± 5.2
304.15 K	1198 ± 2.9	–
305.15 K	1197.28 ± 2.9	–
306.15 K	1196.58 ± 2.9	–
307.15 K	1195.85 ± 2.9	–
308.15 K	1195.16 ± 2.9	64 ± 2.3
309.15 K	1194.44 ± 2.9	–
310.15 K	1193.73 ± 2.9	–
311.15 K	1193.02 ± 2.9	–
312.15 K	1192.32 ± 2.9	–
313.15 K	1191.63 ± 2.9	51.5 ± 1.1
314.15 K	1190.9 ± 2.9	–
315.15 K	1190.2 ± 2.9	–
316.15 K	1189.49 ± 2.8	–
317.15 K	1188.78 ± 2.8	–
318.15 K	1188.08 ± 2.8	42.1 ± 1.6
319.15 K	1187.36 ± 2.8	–
320.15 K	1186.66 ± 2.8	–
321.15 K	1185.96 ± 2.8	–
322.15 K	1185.27 ± 2.8	–
323.15 K	1184.55 ± 2.8	34.9 ± 1.4

CCCCCCCC[n+]1ccn(C)c1.F[B-](F)(F)F [1-methyl-3-octylimidazolium tetrafluoroborate]
Conditions	mass density [kg/m3]	viscosity [mPa·s]
288.15 K	1110.37 ± 2.2	412.3 ± 120
289.15 K	1109.66 ± 2.2	–
290.15 K	1108.98 ± 2.2	–
291.15 K	1108.29 ± 2.2	–
292.15 K	1107.6 ± 2.2	–
293.15 K	1106.92 ± 2.2	300.9 ± 73
294.15 K	1106.24 ± 2.2	–
295.15 K	1105.55 ± 2.2	–
296.15 K	1104.87 ± 2.1	–
297.15 K	1104.18 ± 2.1	–
298.15 K	1103.51 ± 2.1	222.8 ± 45
299.15 K	1102.82 ± 2.1	–
300.15 K	1102.13 ± 2.1	–
301.15 K	1101.45 ± 2.1	–
302.15 K	1100.77 ± 2.1	–
303.15 K	1100.09 ± 2.1	168.9 ± 28
304.15 K	1099.41 ± 2.1	–
305.15 K	1098.73 ± 2.1	–
306.15 K	1098.05 ± 2.1	–
307.15 K	1097.35 ± 2.1	–
308.15 K	1096.69 ± 2.1	131.2 ± 17
309.15 K	1096 ± 2.1	–
310.15 K	1095.32 ± 2.1	–
311.15 K	1094.64 ± 2.1	–
312.15 K	1093.96 ± 2.1	–
313.15 K	1093.29 ± 2.1	102.9 ± 10
314.15 K	1092.6 ± 2	–
315.15 K	1091.92 ± 2	–
316.15 K	1091.25 ± 2	–
317.15 K	1090.57 ± 2	–
318.15 K	1089.89 ± 2	81.8 ± 5.5
319.15 K	1089.23 ± 2	–
320.15 K	1088.54 ± 2	–
321.15 K	1087.88 ± 2	–
322.15 K	1087.21 ± 2	–
323.15 K	1086.51 ± 2	66.7 ± 2.7

CCCCCCn1cc[n+](C)c1.F[B-](F)(F)F [1-hexyl-3-methylimidazolium tetrafluoroborate]
Conditions	mass density [kg/m3]	viscosity [mPa·s]
288.15 K	1151.49 ± 2.5	315.7 ± 78
289.15 K	1150.78 ± 2.5	–
290.15 K	1150.08 ± 2.5	–
291.15 K	1149.37 ± 2.5	–
292.15 K	1148.66 ± 2.5	–
293.15 K	1147.96 ± 2.5	232.8 ± 48
294.15 K	1147.25 ± 2.5	–
295.15 K	1146.56 ± 2.5	–
296.15 K	1145.85 ± 2.5	–
297.15 K	1145.15 ± 2.5	–
298.15 K	1144.45 ± 2.5	174.1 ± 29
299.15 K	1143.75 ± 2.5	–
300.15 K	1143.04 ± 2.5	–
301.15 K	1142.34 ± 2.5	–
302.15 K	1141.65 ± 2.5	–
303.15 K	1140.96 ± 2.4	132.1 ± 17
304.15 K	1140.25 ± 2.4	–
305.15 K	1139.56 ± 2.4	–
306.15 K	1138.87 ± 2.4	–
307.15 K	1138.16 ± 2.4	–
308.15 K	1137.48 ± 2.4	103 ± 10
309.15 K	1136.77 ± 2.4	–
310.15 K	1136.08 ± 2.4	–
311.15 K	1135.39 ± 2.4	–
312.15 K	1134.7 ± 2.4	–
313.15 K	1134.03 ± 2.4	81.7 ± 5.5
314.15 K	1133.33 ± 2.4	–
315.15 K	1132.64 ± 2.4	–
316.15 K	1131.95 ± 2.4	–
317.15 K	1131.28 ± 2.4	–
318.15 K	1130.59 ± 2.4	65.9 ± 2.5
319.15 K	1129.9 ± 2.4	–
320.15 K	1129.22 ± 2.4	–
321.15 K	1128.53 ± 2.3	–
322.15 K	1127.87 ± 2.3	–
323.15 K	1127.17 ± 2.3	53.9 ± 1.2
